Assay results as given in US8791132B2, “Compounds and methods for treatment of hypertension” (Medivation Technologies, Inc., priority 2011, dated 2014).
Where two headings read alike, the source gives them in different places.

Columns and labels:
[1] = target: T1, human recombinant adrenergic α2B receptor (Homo sapiens, UniProt P18089); test: Radioligand binding, adrenergic α2B ([3H]Rauwolscine); conditions: for Percentage inhibition of ligand binding, Adrenergic α2B (0.03 μM) / Percentage inhibition of ligand binding, Adrenergic α2B: 0.03 µM; for Ki: read-out: Ki α2B
T1 construct: expressed in transfected cells; host or cells: CHO-K1
T1 sequence (P18089 1-450): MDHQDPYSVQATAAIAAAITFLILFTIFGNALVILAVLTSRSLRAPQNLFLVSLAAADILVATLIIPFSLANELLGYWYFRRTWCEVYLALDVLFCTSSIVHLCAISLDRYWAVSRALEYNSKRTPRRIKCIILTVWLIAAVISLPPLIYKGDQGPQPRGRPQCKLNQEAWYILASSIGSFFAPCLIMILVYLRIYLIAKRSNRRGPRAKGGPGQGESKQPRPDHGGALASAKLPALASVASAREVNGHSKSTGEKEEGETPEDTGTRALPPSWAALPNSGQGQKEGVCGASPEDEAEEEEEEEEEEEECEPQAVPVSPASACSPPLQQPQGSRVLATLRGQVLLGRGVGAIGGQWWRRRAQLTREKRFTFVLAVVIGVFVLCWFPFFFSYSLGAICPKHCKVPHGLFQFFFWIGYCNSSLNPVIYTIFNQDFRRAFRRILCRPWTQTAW
Outline: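 Readout: percent inhibition of specific [3H]Rauwolscine binding, measured by filtration and counting. Conditions: CHO-K1 cell-expressed receptor, 2.5 nM radioligand, 60 min, 25° C, Tris-HCl pH 7.4 buffer with MgCl2, EDTA, BSA. Non-specific binding: 10 μM Prazosin.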

[2] = target: T2, human recombinant adrenergic α2A receptor (Homo sapiens, UniProt P08913); test: Radioligand binding, adrenergic α2A ([3H]MK-912); conditions: for Percentage inhibition of ligand binding, Adrenergic α2A (0.1 μM) / Percentage inhibition of ligand binding, Adrenergic α2A: 0.1 µM
T2 construct: expressed in transfected cells; host or cells: insect Sf9 cells
T2 sequence (P08913 1-465): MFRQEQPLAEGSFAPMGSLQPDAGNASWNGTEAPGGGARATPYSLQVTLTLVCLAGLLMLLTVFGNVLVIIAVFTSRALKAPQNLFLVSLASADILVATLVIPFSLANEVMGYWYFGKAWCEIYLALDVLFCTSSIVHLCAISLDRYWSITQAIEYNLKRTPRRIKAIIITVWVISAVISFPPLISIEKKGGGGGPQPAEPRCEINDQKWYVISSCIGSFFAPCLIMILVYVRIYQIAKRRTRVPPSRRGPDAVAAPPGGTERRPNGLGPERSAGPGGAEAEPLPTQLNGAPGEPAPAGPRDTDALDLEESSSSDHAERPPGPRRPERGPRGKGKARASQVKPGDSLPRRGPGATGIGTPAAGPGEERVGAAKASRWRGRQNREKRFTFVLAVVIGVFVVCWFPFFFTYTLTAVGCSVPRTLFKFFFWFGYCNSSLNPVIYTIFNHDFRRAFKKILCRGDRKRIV
Outline: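 In 50 mM Tris-HCl (pH 7.4) containing 12.5 mM MgCl2 and 2 mM EDTA, Sf9-expressed receptor was exposed to test compound plus 1 nM [3H]MK-912 at 25 °C for 60 min. Specific binding, corrected using 10 μM WB-4101, was quantified by filtration and counting and expressed as percent inhibition.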

[3] = target: T3, rat adrenergic α1B receptor (Rattus norvegicus, UniProt P15823); test: Radioligand binding, adrenergic α1B ([3H]Prazosin)
T3 construct: rat adrenergic α1B receptor obtained from Wistar Rat liver; from tissue; host or cells: Wistar rat liver
T3 sequence (P15823 1-515): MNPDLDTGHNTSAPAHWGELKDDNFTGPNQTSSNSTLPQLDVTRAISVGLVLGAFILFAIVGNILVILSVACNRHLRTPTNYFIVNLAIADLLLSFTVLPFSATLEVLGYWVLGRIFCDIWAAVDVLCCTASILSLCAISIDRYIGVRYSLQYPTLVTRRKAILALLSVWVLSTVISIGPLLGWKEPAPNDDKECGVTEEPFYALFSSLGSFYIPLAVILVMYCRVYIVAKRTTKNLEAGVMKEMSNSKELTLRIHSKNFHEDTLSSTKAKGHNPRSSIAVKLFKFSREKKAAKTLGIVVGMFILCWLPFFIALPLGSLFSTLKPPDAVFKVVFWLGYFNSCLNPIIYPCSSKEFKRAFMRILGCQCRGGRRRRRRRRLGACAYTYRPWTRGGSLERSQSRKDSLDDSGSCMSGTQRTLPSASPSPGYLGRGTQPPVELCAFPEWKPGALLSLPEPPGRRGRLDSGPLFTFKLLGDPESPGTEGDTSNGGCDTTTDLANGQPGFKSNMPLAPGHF
Outline: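 Filter binding with Wistar rat liver α1B preparation: test compound plus 0.25 nM [3H]prazosin, 1 h at 25° C in modified Tris-HCl buffer pH 7.4.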

[4] = 0.03 μM compound, read-out: Percentage inhibition of ligand binding, Adrenergic α2B
[5] = 0.1 μM compound, read-out: Percentage inhibition of ligand binding, Adrenergic α2A
[6] = 0.1 μM compound, read-out: Percentage inhibition of ligand binding, Adrenergic α1B
[7] = compound at 0.03 μM, [3H]Rauwolscine, repeat datapoints each shown
[8] = compound at 0.1 μM, [3H]MK-912, repeat datapoints each shown
[9] = compound at 0.1 μM, [3H]Prazosin, repeat datapoints each shown, 0.1 µM
[10] = compound at 0.03 μM, [3H]Rauwolscine, repeat assays, each datapoint shown
[11] = compound at 0.1 μM, [3H]MK-912, repeat assays, each datapoint shown
[12] = compound at 0.1 μM, [3H]Prazosin, repeat assays, each datapoint shown, read-out: Percentage inhibition of ligand binding, Adrenergic α1B
[13] = read-out: Percentage inhibition of ligand binding, Adrenergic α2B (0.03 μM), compound at 0.03 μM, [3H]Rauwolscine, repeat datapoints each shown
[14] = read-out: Percentage inhibition of ligand binding, Adrenergic α2A (0.1 μM), compound at 0.1 μM, [3H]MK-912, repeat datapoints each shown
[15] = read-out: Percentage inhibition of ligand binding, Adrenergic α1B (0.1 μM), compound at 0.1 μM, [3H]Prazosin, repeat datapoints each shown

CCNC(Cn1c2c(c3cc(C)ccc31)CN(C)CC2)c1ccncc1 (stereo not shown) [II-8, [2-(2,8-dimethyl-1,2,3,4-tetrahydro-pyrido[4,3-b]indol-5-yl)-1-pyridin-4-yl-ethyl]-ethyl-amine]
inhibition at 0.03 µM [1, 4]: 70%
inhibition at 0.1 µM [2, 5]: 9%
inhibition at 0.1 µM [3, 6]: 6%

Cc1ccc2c(c1)c1c(n2CC(OC(=O)CCC(=O)O)c2ccncc2)CCN2CCCC12 (single isomer, unassigned) [V-18b, 4-(2-(10-methyl-2,3,5,6-tetrahydro-1H-indolizino[7,8-b]indol-7(11cH)-yl)-1-(pyridin-4-yl)ethoxy)-4-oxobutanoic acid]
Percentage inhibition of ligand binding, Adrenergic α2B (0.03 μM) [1, 7]: 98%
Percentage inhibition of ligand binding, Adrenergic α2A (0.1 μM) [2, 8]: 57%
Percentage inhibition of ligand binding, Adrenergic α1B (0.1 μM) [3, 9]: 95%

Cc1cnc2c(c1)c1c(n2CC(C)(O)c2ccc(C)nc2)CCN2CCCC12 (single isomer, unassigned) [148c]
Percentage inhibition of ligand binding, Adrenergic α2B (0.03 μM) [1, 7]: 16%
Percentage inhibition of ligand binding, Adrenergic α2A (0.1 μM) [2, 8]: −1%
Percentage inhibition of ligand binding, Adrenergic α1B (0.1 μM) [3, 9]: 6%

CC(C)(O)CCN1CCc2c(c3cc(Cl)ccc3n2CC(O)c2ccncc2)C1 (single isomer, unassigned) [11a, 4-[8-chloro-5-(2-hydroxy-2-pyridin-4-yl-ethyl)-1,3,4,5-tetrahydro-pyrido[4,3-b]indol-2-yl]-2-methyl-butan-2-ol]
Percentage inhibition of ligand binding, Adrenergic α2B [1, 10]: 28%
Percentage inhibition of ligand binding, Adrenergic α2A [2, 11]: −6%
inhibition at 0.1 µM [3, 12]: 16%

Cc1ccc2c(c1)c1c(n2CC(O)c2cnn(C)c2)CCN(C)C1 (single isomer, unassigned) [131b, 2-(1,2,3,4-tetrahydro-2,8-dimethylpyrido[4,3-b]indol-5-yl)-1-(1-methyl-1H-pyrazol-4-yl)ethanol]
Percentage inhibition of ligand binding, Adrenergic α2B (0.03 μM) [1, 7]: 63%
Ki [1]: 7.95 nM
inhibition at 0.03 µM [1, 13]: 53%
inhibition at 0.1 µM ([1]; read-out: Percentage inhibition of ligand binding, Adrenergic α2B (0.1 μM), compound at 0.1 μM, [3H]Rauwolscine, repeat datapoints each shown): 90%
inhibition at 0.1 µM [2, 14]: 11%
inhibition at 0.1 µM [3, 15]: 36%

Cc1ccc2c(c1)c1c(n2CC(N=[N+]=[N-])c2ccc(F)cc2F)CCN(C)CC1 (single isomer, unassigned) [V-21b, 6-(2-azido-2-(2,4-difluorophenyl)ethyl)-3,9-dimethyl-1,2,3,4,5,6-hexahydroazepino[4,5-b]indole]
Percentage inhibition of ligand binding, Adrenergic α2B (0.03 μM) [1, 7]: 93%
Percentage inhibition of ligand binding, Adrenergic α2A (0.1 μM) [2, 8]: 43%
Percentage inhibition of ligand binding, Adrenergic α1B (0.1 μM) [3, 9]: 34%

OCc1ccc2c(c1)c1c(n2CC(O)c2ccncc2)CCNC1 (stereo not shown) [II-81, 2-(8-hydroxymethyl-1,2,3,4-tetrahydro-pyrido[4,3-b]indol-5-yl)-1-pyridin-4-yl-ethanol]
inhibition at 0.03 µM [1, 4]: -9%
inhibition at 0.1 µM [2, 5]: 15%
inhibition at 0.1 µM [3, 6]: -1%

Cc1ccc2c(c1)c1c(n2CC(O)c2ccncc2)CCN(C)CC1 (stereo not shown) [compound 13, 2-(3,9-dimethyl-2,3,4,5-tetrahydroazepino[4,5-b]indol-6(1H)-yl)-1-(pyridin-4-yl)ethanol]
Percentage inhibition of ligand binding, Adrenergic α2B [1, 10]: 92%
Percentage inhibition of ligand binding, Adrenergic α2A [2, 11]: 18%
inhibition at 0.1 µM [3, 12]: 83%

Cc1cnc2c(c1)c1c(n2CC(N=[N+]=[N-])c2ccncc2)CCN(C)C1 (stereo not shown) [V-2, 9-(2-azido-2-(pyridin-4-yl)ethyl)-3,6-dimethyl-6,7,8,9-tetrahydro-5H-pyrrolo[2,3-b:4,5-c′]dipyridine]
inhibition at 0.03 µM [1, 13]: 61%
inhibition at 0.1 µM [2, 14]: 2%
inhibition at 0.1 µM [3, 15]: 49%

CN1CCc2c(c3cc(Cl)ccc3n2CC(C)(O)c2cccnc2)C1 (single isomer, unassigned) [31a]
Percentage inhibition of ligand binding, Adrenergic α2B [1, 10]: 97%
inhibition at 0.03 µM ([1]; compound at 0.03 μM, [3H]Rauwolscine, repeat assays, each datapoint shown, read-out: Percentage inhibition of ligand binding, Adrenergic α2B): 93%
Ki [1]: 1.58 nM
Ki [2]: 167 nM
inhibition at 0.03 µM ([2]; compound at 0.03 μM, [3H]MK-912, repeat assays, each datapoint shown, read-out: Percentage inhibition of ligand binding, Adrenergic α2A): 11%
Percentage inhibition of ligand binding, Adrenergic α2A [2, 11]: 27%
inhibition at 0.1 µM ([2]; compound at 0.1 μM, [3H]MK-912, repeat assays, each datapoint shown, read-out: Percentage inhibition of ligand binding, Adrenergic α2A): 19%
inhibition at 0.03 µM ([3]; compound at 0.03 μM, [3H]Prazosin, repeat assays, each datapoint shown, read-out: Percentage inhibition of ligand binding, Adrenergic α1B): 16%
Percentage inhibition of ligand binding, Adrenergic α1B ([3]; compound at 0.1 μM, [3H]Prazosin, repeat assays, each datapoint shown, 0.1 µM): 28%
inhibition at 0.1 µM [3, 12]: 25%

Cc1ccc2c(c1)c1c(n2CC(C)(N=[N+]=[N-])c2cccnc2)CCN(C)C1 (stereo not shown) [V-3, 5-(2-azido-2-(pyridin-3-yl)propyl)-2,8-dimethyl-2,3,4,5-tetrahydro-1H-pyrido[4,3-b]indole]
inhibition at 0.03 µM [1, 13]: 71%
inhibition at 0.1 µM [2, 14]: 40%
inhibition at 0.1 µM [3, 15]: 22%

Cc1ccc(CCn2c3c(c4c(F)ccc(F)c42)CN(C)CC3)cn1 [II-250]
inhibition at 0.03 µM [1, 13]: 6%
inhibition at 0.1 µM [2, 14]: 57%
inhibition at 0.1 µM [3, 15]: -5%

Cc1cnc2c(c1)c1c(n2CCc2cnccn2)CCN2CCCC12 (stereo not shown) [II-245]
inhibition at 0.03 µM [1, 13]: 44%
inhibition at 0.1 µM [2, 14]: 7%
inhibition at 0.1 µM [3, 15]: 27%

Cc1ccc2c(c1)c1c(n2CC(O)c2ccc(C#N)nc2)CCN(C)C1 (single isomer, unassigned) [140a, 5-[2-(2,8-dimethyl-1,2,3,4-tetrahydro-pyrido[4,3-b]indol-5-yl)-1-hydroxy-ethyl]-pyridine-2-carbonitrile]
Percentage inhibition of ligand binding, Adrenergic α2B (0.03 μM) [1, 7]: 76%
Percentage inhibition of ligand binding, Adrenergic α2A (0.1 μM) [2, 8]: 11%
Percentage inhibition of ligand binding, Adrenergic α1B (0.1 μM) [3, 9]: 59%

Cc1ccc(CCn2c3c(c4c(Cl)ccc(Br)c42)CN(C)CC3)cn1 [II-252]
inhibition at 0.03 µM [1, 13]: 1%
inhibition at 0.1 µM [2, 14]: 91%
inhibition at 0.1 µM [3, 15]: -1%
